Target: RaaR (RSp0912) (Ralstonia pseudosolanacearum, UniProt Q8XRE2)
Experiment: biochemical

RaaR (RSp0912), sequence (Q8XRE2 1-313 limits assumed): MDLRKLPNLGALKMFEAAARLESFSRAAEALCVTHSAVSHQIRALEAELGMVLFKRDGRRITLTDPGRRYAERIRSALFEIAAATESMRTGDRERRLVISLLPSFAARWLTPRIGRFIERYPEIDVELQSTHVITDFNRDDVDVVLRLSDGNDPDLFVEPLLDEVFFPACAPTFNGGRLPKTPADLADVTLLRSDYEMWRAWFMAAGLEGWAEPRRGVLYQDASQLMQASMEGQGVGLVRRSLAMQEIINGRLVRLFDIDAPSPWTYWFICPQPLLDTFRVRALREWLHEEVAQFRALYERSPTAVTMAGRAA

For `Nc1ccccc1C(=O)O` [anthranilic acid], the Kd was 3.63 µM.

— paper PMC9176790 (PLoS Pathogens, 2022)
